Test results reported in paper PMC5577244, “CD2068 potentially mediates multidrug efflux in Clostridium difficile” (Scientific Reports, 2017).
Like-named read-outs stand apart in the source and are kept apart here.

Biological target: T1, CD2068 (Clostridioides difficile, UniProt Q188D7)
T1 construct: gene CD630_20680; full coding region in pET28a (NcoI/EcoRI), C-terminal His6 tag kept; expressed in E. coli BL21(DE3) pLysS; inside-out membrane vesicles; ~60 kDa
Assay: vanadate-sensitive ATPase stimulation, inside-out membrane vesicles, phosphate release
Type: biochemical
Description: vanadate-sensitive ATPase stimulation, inside-out membrane vesicles, phosphate release on CD2068

T1 sequence (Q188D7 entry or part of it): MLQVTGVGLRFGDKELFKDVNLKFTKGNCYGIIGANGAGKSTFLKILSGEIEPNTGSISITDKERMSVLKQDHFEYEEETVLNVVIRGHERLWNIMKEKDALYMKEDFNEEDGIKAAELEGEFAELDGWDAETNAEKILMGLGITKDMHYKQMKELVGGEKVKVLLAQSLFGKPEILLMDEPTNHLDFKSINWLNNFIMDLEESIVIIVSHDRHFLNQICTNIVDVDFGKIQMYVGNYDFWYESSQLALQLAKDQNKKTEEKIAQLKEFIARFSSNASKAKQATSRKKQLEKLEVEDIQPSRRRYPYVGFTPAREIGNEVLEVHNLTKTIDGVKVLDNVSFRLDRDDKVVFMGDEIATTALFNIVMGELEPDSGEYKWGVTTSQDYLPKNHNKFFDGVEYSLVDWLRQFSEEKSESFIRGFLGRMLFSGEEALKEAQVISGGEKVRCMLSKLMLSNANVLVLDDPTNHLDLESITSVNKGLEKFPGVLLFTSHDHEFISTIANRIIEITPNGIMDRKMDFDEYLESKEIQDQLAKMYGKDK

SMILES | EC50 (read-out: ATPase activity / SC50) [µM] | EC50 [µM]
C[C@H]1COc2c(N3CCN(C)CC3)c(F)cc3c(=O)c(C(=O)O)cn1c23 [Levofloxacin] | 4.5 ± 1 | –
CC[C@H]1OC(=O)[C@H](C)[C@@H](O[C@H]2C[C@@](C)(OC)[C@@H](O)[C@H](C)O2)[C@H](C)[C@@H](O[C@@H]2O[C@H](C)C[C@H](N(C)C)[C@H]2O)[C@](C)(O)C[C@@H](C)/C(=N\OCOCCOC)[C@H](C)[C@@H](O)[C@]1(C)O [Roxithromycin] | – | 2.9
CO[C@@]1(NC(=O)Cc2cccs2)C(=O)N2C(C(=O)O)=C(COC(N)=O)CS[C@@H]21 [Cefoxitin] | – | 7.6 ± 1
CC1(C)S[C@@H]2[C@H](NC(=O)[C@H](N)c3ccccc3)C(=O)N2[C@H]1C(=O)O [Ampicillin] | – | 4.4
Cc1onc(-c2ccccc2Cl)c1C(=O)N[C@@H]1C(=O)N2[C@@H]1SC(C)(C)[C@@H]2C(=O)O [Cloxacillin] | – | 3
CN[C@H](CC(C)C)C(=O)N[C@H]1C(=O)N[C@@H](CC(N)=O)C(=O)N[C@H]2C(=O)N[C@H]3C(=O)N[C@H](C(=O)N[C@H](C(=O)O)c4cc(O)cc(O)c4-c4cc3ccc4O)[C@H](O)c3ccc(c(Cl)c3)Oc3cc2cc(c3O[C@@H]2O[C@H](CO)[C@@H](O)[C@H](O)[C@H]2O[C@H]2C[C@](C)(N)[C@H](O)[C@H](C)O2)Oc2ccc(cc2Cl)[C@H]1O [Vancomycin] | – | 3.4 ± 1
